Measured values taken from ChEMBL document CHEMBL1148778, “Synthesis and characterization of nonsteroidal glucocorticoid receptor modulators for multiple myeloma” (J Med Chem, 2007).
pEC50, pKi: −log10 of the molar value.

What was measured:
RPMI-8226 [1] = assay: Inhibition of tumor growth in human RPMI8226 cells xenografted nude mouse at 10 mg/kg, po after 4 weeks relative to Dexamethasone; type: functional
RPMI-8226 [2] = assay: Inhibition of tumor growth in human RPMI8226 cells xenografted nude mouse at 100 mg/kg, po after 4 weeks relative to Dexamethasone; type: functional
RPMI-8226 [3] = assay: Inhibition of tumor growth in human RPMI8226 cells xenografted nude mouse at 30 mg/kg, po after 4 weeks relative to Dexamethasone; type: functional
Glucocorticoid receptor = target: T1, Glucocorticoid receptor (Homo sapiens, UniProt P04150); assay: Agonist activity at human GR expressed in CV1 cells by GRE activation assay; type: functional, cell-based, CV-1
T1 sequence (P04150 whole entry): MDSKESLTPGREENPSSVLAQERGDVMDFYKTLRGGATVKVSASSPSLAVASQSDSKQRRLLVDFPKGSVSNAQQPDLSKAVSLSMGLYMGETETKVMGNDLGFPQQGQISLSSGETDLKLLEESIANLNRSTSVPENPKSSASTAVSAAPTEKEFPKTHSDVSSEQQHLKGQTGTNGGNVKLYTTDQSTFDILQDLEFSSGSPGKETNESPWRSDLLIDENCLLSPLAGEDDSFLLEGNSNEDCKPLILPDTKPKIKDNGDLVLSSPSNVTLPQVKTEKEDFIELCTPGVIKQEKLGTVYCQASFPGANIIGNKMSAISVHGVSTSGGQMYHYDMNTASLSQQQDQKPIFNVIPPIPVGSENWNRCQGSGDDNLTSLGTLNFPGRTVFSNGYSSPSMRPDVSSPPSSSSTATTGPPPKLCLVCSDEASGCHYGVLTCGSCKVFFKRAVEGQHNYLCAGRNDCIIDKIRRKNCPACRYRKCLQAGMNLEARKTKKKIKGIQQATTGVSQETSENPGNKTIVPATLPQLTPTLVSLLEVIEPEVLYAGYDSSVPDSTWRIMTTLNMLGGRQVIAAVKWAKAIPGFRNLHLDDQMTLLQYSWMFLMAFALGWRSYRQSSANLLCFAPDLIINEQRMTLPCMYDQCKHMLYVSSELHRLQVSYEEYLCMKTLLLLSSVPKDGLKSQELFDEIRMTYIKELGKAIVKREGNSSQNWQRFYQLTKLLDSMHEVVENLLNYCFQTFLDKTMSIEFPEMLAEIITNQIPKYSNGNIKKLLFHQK

Androgen receptor = target: T2, Androgen receptor (Homo sapiens, UniProt P10275); assay: Binding affinity to AR
T2 sequence (P10275 whole entry): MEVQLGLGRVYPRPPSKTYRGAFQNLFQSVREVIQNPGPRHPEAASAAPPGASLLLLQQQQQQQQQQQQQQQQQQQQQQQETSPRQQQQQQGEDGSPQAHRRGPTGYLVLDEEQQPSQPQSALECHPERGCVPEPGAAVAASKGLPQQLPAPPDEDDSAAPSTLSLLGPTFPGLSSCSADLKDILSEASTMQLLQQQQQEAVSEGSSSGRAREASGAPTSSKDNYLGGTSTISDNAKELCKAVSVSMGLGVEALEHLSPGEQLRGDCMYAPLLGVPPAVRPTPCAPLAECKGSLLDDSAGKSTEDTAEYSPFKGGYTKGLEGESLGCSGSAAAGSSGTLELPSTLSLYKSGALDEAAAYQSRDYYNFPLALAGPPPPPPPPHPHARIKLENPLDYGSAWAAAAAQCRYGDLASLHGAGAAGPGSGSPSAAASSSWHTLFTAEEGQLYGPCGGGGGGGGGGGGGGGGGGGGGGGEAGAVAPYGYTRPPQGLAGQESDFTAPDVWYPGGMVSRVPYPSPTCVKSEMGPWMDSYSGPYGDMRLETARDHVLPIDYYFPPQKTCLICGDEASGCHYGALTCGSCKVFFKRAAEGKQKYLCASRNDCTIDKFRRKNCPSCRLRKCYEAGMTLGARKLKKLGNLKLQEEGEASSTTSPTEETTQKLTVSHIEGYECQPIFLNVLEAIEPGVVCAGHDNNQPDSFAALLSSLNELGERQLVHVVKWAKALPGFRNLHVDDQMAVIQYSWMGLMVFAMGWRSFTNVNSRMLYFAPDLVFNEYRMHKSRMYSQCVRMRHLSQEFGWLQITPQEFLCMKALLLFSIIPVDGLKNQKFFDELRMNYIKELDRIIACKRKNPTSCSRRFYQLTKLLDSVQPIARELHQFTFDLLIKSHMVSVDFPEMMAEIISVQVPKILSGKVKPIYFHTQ

[4] = target: T3, Mineralocorticoid receptor (Homo sapiens) (UniProt P08235); assay: Antagonist activity at mineralocorticoid receptor by MR activation assay; type: functional; parameters: scale not given: the % may be the effect or the level left
T3 sequence (whole entry): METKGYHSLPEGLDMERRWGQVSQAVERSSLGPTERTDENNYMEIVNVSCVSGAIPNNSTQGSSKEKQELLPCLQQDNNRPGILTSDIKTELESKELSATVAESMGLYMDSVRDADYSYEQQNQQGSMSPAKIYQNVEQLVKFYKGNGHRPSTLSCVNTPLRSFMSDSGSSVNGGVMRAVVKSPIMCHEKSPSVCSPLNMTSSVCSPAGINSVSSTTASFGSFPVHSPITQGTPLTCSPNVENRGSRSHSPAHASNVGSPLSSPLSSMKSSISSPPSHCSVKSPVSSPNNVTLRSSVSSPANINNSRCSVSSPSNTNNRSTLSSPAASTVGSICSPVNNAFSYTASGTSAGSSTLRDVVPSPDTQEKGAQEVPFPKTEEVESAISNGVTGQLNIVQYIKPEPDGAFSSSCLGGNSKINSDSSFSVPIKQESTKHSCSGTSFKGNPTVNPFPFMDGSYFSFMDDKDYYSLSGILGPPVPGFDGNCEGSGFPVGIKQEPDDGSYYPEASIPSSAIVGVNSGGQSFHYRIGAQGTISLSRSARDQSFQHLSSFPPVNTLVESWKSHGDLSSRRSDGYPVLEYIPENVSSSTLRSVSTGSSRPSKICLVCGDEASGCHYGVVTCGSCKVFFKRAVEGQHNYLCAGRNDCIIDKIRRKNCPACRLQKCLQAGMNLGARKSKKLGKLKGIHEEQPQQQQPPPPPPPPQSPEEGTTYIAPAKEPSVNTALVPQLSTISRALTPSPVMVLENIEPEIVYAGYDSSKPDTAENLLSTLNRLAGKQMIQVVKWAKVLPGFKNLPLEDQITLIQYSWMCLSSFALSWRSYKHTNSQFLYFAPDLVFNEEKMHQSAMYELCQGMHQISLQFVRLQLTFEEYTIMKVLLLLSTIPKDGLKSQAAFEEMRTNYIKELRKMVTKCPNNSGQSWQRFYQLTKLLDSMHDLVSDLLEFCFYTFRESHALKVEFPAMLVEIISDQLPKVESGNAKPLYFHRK

[5] = target: T3, Mineralocorticoid receptor (Homo sapiens); assay: Agonist activity at mineralocorticoid receptor by MR activation assay; type: functional
RPMI-8226 [6] = assay: Inhibition of tumor growth in human RPMI8226 cells xenografted nude mouse at 3 mg/kg, po after 4 weeks relative to Dexamethasone; type: functional

| pEC50 (Glucocorticoid receptor) | pKi (Androgen receptor) | Activity [4] | Activity [5] | SMILES | Efficacy (RPMI-8226 [1]) | Efficacy (RPMI-8226 [2]) | Efficacy (RPMI-8226 [3]) | Efficacy (RPMI-8226 [6]) |
| --- | --- | --- | --- | --- | --- | --- | --- | --- |
| 9.70 | 6.82 | 55% | 25% | COCc1ccsc1/C=C1\Oc2ccc(O)c(OC)c2-c2ccc3c(c21)C(C)=CC(C)(C)N3 |  |  |  |  |
| 9.70 | 6.54 |  |  | COc1c(O)ccc2c1-c1ccc3c(c1/C(=C/c1sccc1CO)O2)C(C)=CC(C)(C)N3 |  | 97% | 80% | 29% |

| SMILES | pEC50 (Glucocorticoid receptor) | pKi (Androgen receptor) | Activity [4] | Activity [5] | Efficacy (RPMI-8226 [1]) | Efficacy (RPMI-8226 [2]) | Efficacy (RPMI-8226 [3]) | Efficacy (RPMI-8226 [6]) |
| --- | --- | --- | --- | --- | --- | --- | --- | --- |
| CO/N=C(\C)c1ccsc1/C=C1\Oc2ccc(O)c(OC)c2-c2ccc3c(c21)C(C)=CC(C)(C)N3 | 10.00 | 6.96 |  |  | 78% | 95% | 82% |  |
